Data: patent US7138361B2, “Herbicidal heterocycles” (E. I. du Pont de Nemours and Company, priority 2000, dated 2006)

Columns and labels:
Type in all cases: in vivo
[1] = system: Surinam grass (Brachiaria decumbens); experiment: Test B preemergence
In short: (§1)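 Greenhouse test: chemicals are formulated in a surfactant-containing non-phytotoxic solvent and applied either preemergence to planted seeds or postemergence to plants 2 to 18 cm tall. Response is rated visually versus controls after 13 to 15 days, 0 meaning no effect and 100 complete control.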

[2] = system: barnyardgrass (Echinochloa crus-galli); experiment: Test B preemergence
In short: as §1

[3] = system: cocklebur (Xanthium strumarium); experiment: Test B preemergence
In short: as §1

[4] = system: corn (Zea mays); experiment: Test B preemergence
In short: as §1

[5] = system: crabgrass (Digitaria sanguinalis); experiment: Test B preemergence
In short: as §1

[6] = system: giant foxtail (Setaria faberii); experiment: Test B preemergence
In short: as §1

[7] = system: lambsquarters (Chenopodium album); experiment: Test B preemergence
In short: as §1

[8] = system: morning glory (Ipomoea hederacea); experiment: Test B preemergence
In short: as §1

[9] = system: pigweed (Amaranthus retroflexus); experiment: Test B preemergence
In short: as §1

[10] = system: rice (Oryza saliva); experiment: Test B preemergence
In short: as §1

[11] = system: velvetleaf (Abutilon theophrasti); experiment: Test B preemergence
In short: as §1

[12] = system: Sunflower; experiment: Test C preemergence
[13] = system: Surinam grass (Brachiaria decumbens); experiment: Test C preemergence; conditions: for Plant response rating (0 to 100), Surinam grass: visual evaluation after 12 to 14 days
In short: (§2)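 Each compound was dissolved in a non-phytotoxic solvent system containing a surfactant and sprayed either on freshly planted seeds (preemergence) or on young plants, 2 to 18 cm high (postemergence). Ratings after 12 to 14 greenhouse days ran from 0, no effect, to 100, complete control.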

[14] = system: bermudagrass (Cynodon dactylon); experiment: Test C preemergence; conditions: for Plant response rating (0 to 100 where 0 is no effect and 100 is complete control), Bermudagrass: visual evaluation after 12 to 14 days
In short: as §2

[15] = system: cocklebur (Xanthium strumarium); experiment: Test C preemergence; conditions: for Plant response rating (0 to 100), Cocklebur: visual evaluation after 12 to 14 days
In short: as §2

[16] = system: common ragweed (Ambrosia elatior); experiment: Test C preemergence; conditions: for Plant response rating (0 to 100), Ragweed, Common: visual evaluation after 12 to 14 days
In short: as §2

[17] = system: crabgrass (Digitaria sanguinalis); experiment: Test C preemergence; conditions: for Plant response rating (0 to 100), Crabgrass: visual evaluation after 12 to 14 days
In short: as §2

[18] = system: giant foxtail (Setaria faberii); experiment: Test C preemergence; conditions: for Plant response rating (0 to 100), Foxtail, Giant: visual evaluation after 12 to 14 days
In short: as §2

[19] = system: goosegrass (Eleusine indica); experiment: Test C preemergence; conditions: for Plant response rating (0 to 100), Goosegrass: visual evaluation after 12 to 14 days
In short: as §2

[20] = system: morningglory (Ipomoea hederacea); experiment: Test C preemergence; conditions: for Plant response rating (0 to 100), Morningglory: visual evaluation after 12 to 14 days
In short: as §2

[21] = system: velvetleaf (Abutilon theophrasti); experiment: Test C preemergence; conditions: for Plant response rating (0 to 100), Velvetleaf: visual evaluation after 12 to 14 days
In short: as §2

[22] = system: Sunflower; experiment: Test C preemergence; conditions: visual evaluation after 12 to 14 days
[23] = Preemergence, Rate 500 g/ha, scale 0 to 100, 0 no effect, 100 complete control
[24] = preemergence, Rate 125 g/ha, scale 0 to 100, 0 no effect, 100 complete control
[25] = Rate 62 g/ha, scale 0 to 100, 0 no effect, 100 complete control
[26] = Preemergence, Rate 500 g/ha, scale 0 to 100
[27] = preemergence, Rate 125 g/ha, scale of 0 to 100 where 0 is no effect and 100 is complete control, 13 to 15 days
[28] = Rate 125 g/ha, scale 0 to 100, 0 no effect, 100 complete control
[29] = preemergence, Rate 62 g/ha, scale 0 to 100
[30] = preemergence, Rate 250 g/ha, scale 0 to 100, 0 no effect, 100 complete control

CCC(C)c1ccn(C2SCN(c3cccc(OC(F)(F)F)c3)C2=O)n1 (stereo not shown) [Compound 32]
Plant response rating, Surinam grass [1, 23]: 60
Plant response rating, Surinam grass [1, 24]: 40
Plant response rating, Barnyardgrass [2, 23]: 100
Plant response rating, Barnyardgrass [2, 24]: 80
Plant response rating, Cocklebur [3, 23]: 0
Plant response rating, Corn [4, 23]: 0
Plant response rating, Corn [4, 24]: 0
Plant response rating, Crabgrass [5, 23]: 100
Plant response rating, Crabgrass [5, 24]: 60
Plant response rating, Foxtail, Giant [6, 23]: 100
Plant response rating, Foxtail, Giant [6, 24]: 70
Plant response rating, Lambsquarters [7, 23]: 100
Plant response rating, Lambsquarters [7, 24]: 100
Plant response rating, Morningglory [8, 23]: 0
Plant response rating, Pigweed [9, 23]: 100
Plant response rating, Rice [10, 23]: 0
Plant response rating, Velvetleaf [11, 23]: 0
Plant response rating, Sunflower [12, 25]: 0
Plant response rating, Sunflower ([12]; Rate 500 g/ha, scale 0 to 100): 70
Plant response rating, Surinam grass [13, 26]: 90
Plant response rating, Surinam grass [13, 25]: 70
Plant response rating (0 to 100), Surinam grass ([13]; preemergence, Rate 250 g/ha): 80
Plant response rating, Surinam grass [13, 24]: 80
Plant response rating, Bermudagrass [14, 26]: 100
Plant response rating, Bermudagrass [14, 25]: 50
Plant response rating (0 to 100 where 0 is no effect and 100 is complete control), Bermudagrass ([14]; preemergence, Rate 250 g/ha): 100
Plant response rating, Bermudagrass [14, 24]: 90
Plant response rating, Cocklebur [15, 26]: 0
Plant response rating, Cocklebur [15, 25]: 0
Plant response rating (0 to 100), Cocklebur ([15]; preemergence, Rate 250 g/ha): 0
Plant response rating, Ragweed, Common [16, 26]: 100
Plant response rating, Ragweed, Common [16, 25]: 0
Plant response rating (0 to 100), Ragweed, Common ([16]; preemergence, Rate 250 g/ha): 90
Plant response rating, Ragweed, Common [16, 24]: 0
Plant response rating, Crabgrass [17, 26]: 100
Plant response rating, Crabgrass [17, 25]: 100
Plant response rating (0 to 100), Crabgrass ([17]; preemergence, Rate 250 g/ha): 100
Plant response rating, Crabgrass [17, 24]: 100
Plant response rating, Foxtail, Giant [18, 26]: 100
Plant response rating, Foxtail, Giant [18, 25]: 70
Plant response rating (0 to 100), Foxtail, Giant ([18]; preemergence, Rate 250 g/ha): 100
Plant response rating, Foxtail, Giant [18, 24]: 50
Plant response rating, Goosegrass [19, 26]: 100
Plant response rating, Goosegrass [19, 25]: 100
Plant response rating (0 to 100), Goosegrass ([19]; preemergence, Rate 250 g/ha): 100
Plant response rating, Goosegrass [19, 24]: 100
Plant response rating, Morningglory [20, 26]: 80
Plant response rating, Morningglory [20, 25]: 30
Plant response rating (0 to 100), Morningglory ([20]; preemergence, Rate 250 g/ha): 50
Plant response rating, Morningglory [20, 24]: 40
Plant response rating, Velvetleaf [21, 26]: 40
Plant response rating, Velvetleaf [21, 25]: 0
Plant response rating (0 to 100), Velvetleaf ([21]; preemergence, Rate 250 g/ha): 0
Plant response rating, Velvetleaf [21, 24]: 0
Plant response rating (0 to 100), Sunflower ([22]; Rate 250 g/ha): 70

COc1cc(N2CCC(n3ccc(C(C)C)n3)C2=O)ccc1C (stereo not shown) [Compound 85]
Plant response rating, Surinam grass [1, 23]: 90
Plant response rating, Surinam grass [1, 27]: 60
Plant response rating, Barnyardgrass [2, 23]: 100
Plant response rating, Barnyardgrass [2, 27]: 100
Plant response rating, Cocklebur [3, 23]: 90
Plant response rating, Cocklebur [3, 27]: 40
Plant response rating, Corn [4, 23]: 30
Plant response rating, Corn [4, 27]: 20
Plant response rating, Crabgrass [5, 23]: 100
Plant response rating, Crabgrass [5, 27]: 100
Plant response rating, Foxtail, Giant [6, 23]: 100
Plant response rating, Foxtail, Giant [6, 27]: 80
Plant response rating, Lambsquarters [7, 23]: 100
Plant response rating, Lambsquarters [7, 27]: 100
Plant response rating, Morningglory [8, 23]: 100
Plant response rating, Morningglory [8, 27]: 90
Plant response rating, Pigweed [9, 23]: 100
Plant response rating, Pigweed [9, 27]: 100
Plant response rating, Rice [10, 23]: 100
Plant response rating, Rice [10, 27]: 100
Plant response rating, Velvetleaf [11, 23]: 100
Plant response rating, Velvetleaf [11, 27]: 20
Plant response rating, Sunflower [12, 28]: 70
Plant response rating, Surinam grass [13, 28]: 30
Plant response rating, Surinam grass [13, 29]: 30
Plant response rating (0 to 100), Surinam grass ([13]; preemergence, Rate 250 g/ha): 100
Plant response rating (0 to 100), Surinam grass ([13]; preemergence, Rate 500 g/ha): 100
Plant response rating, Bermudagrass [14, 28]: 100
Plant response rating, Bermudagrass [14, 29]: 100
Plant response rating (0 to 100 where 0 is no effect and 100 is complete control), Bermudagrass ([14]; preemergence, Rate 250 g/ha): 100
Plant response rating (0 to 100 where 0 is no effect and 100 is complete control), Bermudagrass ([14]; preemergence, Rate 500 g/ha): 100
Plant response rating, Cocklebur [15, 28]: 60
Plant response rating, Cocklebur [15, 29]: 60
Plant response rating (0 to 100), Cocklebur ([15]; preemergence, Rate 250 g/ha): 60
Plant response rating (0 to 100), Cocklebur ([15]; preemergence, Rate 500 g/ha): 60
Plant response rating, Ragweed, Common [16, 28]: 100
Plant response rating, Ragweed, Common [16, 29]: 90
Plant response rating (0 to 100), Ragweed, Common ([16]; preemergence, Rate 500 g/ha): 100
Plant response rating, Ragweed, Common [16, 30]: 100
Plant response rating, Crabgrass [17, 28]: 100
Plant response rating, Crabgrass [17, 29]: 100
Plant response rating (0 to 100), Crabgrass ([17]; preemergence, Rate 250 g/ha): 100
Plant response rating (0 to 100), Crabgrass ([17]; preemergence, Rate 500 g/ha): 100
Plant response rating, Foxtail, Giant [18, 28]: 100
Plant response rating, Foxtail, Giant [18, 29]: 60
Plant response rating (0 to 100), Foxtail, Giant ([18]; preemergence, Rate 250 g/ha): 100
Plant response rating (0 to 100), Foxtail, Giant ([18]; preemergence, Rate 500 g/ha): 100
Plant response rating, Goosegrass [19, 28]: 100
Plant response rating, Goosegrass [19, 29]: 20
Plant response rating (0 to 100), Goosegrass ([19]; preemergence, Rate 250 g/ha): 100
Plant response rating (0 to 100), Goosegrass ([19]; preemergence, Rate 500 g/ha): 100
Plant response rating, Morningglory [20, 28]: 90
Plant response rating, Morningglory [20, 29]: 50
Plant response rating (0 to 100), Morningglory ([20]; preemergence, Rate 500 g/ha): 100
Plant response rating, Morningglory [20, 30]: 90
Plant response rating, Velvetleaf [21, 28]: 70
Plant response rating, Velvetleaf [21, 29]: 70
Plant response rating (0 to 100), Velvetleaf ([21]; preemergence, Rate 500 g/ha): 100
Plant response rating, Velvetleaf [21, 30]: 80
Plant response rating (0 to 100), Sunflower ([22]; Rate 500 g/ha): 70
